# pIC50: −log10 of the molar value.
# How the values were obtained:
# CCRF-CEM = experiment: Antiproliferative activity against human CCRF-CEM cells measured after 48 hrs by SRB assay; type: functional, cell-based
# HL-60(TB) = experiment: Antiproliferative activity against human HL-60(TB) cells measured after 48 hrs by SRB assay; type: functional, cell-based
# K562 = experiment: Antiproliferative activity against human K562 cells measured after 48 hrs by SRB assay; type: functional, cell-based
# MOLT-4 = experiment: Antiproliferative activity against human MOLT-4 cells measured after 48 hrs by SRB assay; type: functional, cell-based
# RPMI-8226 = experiment: Antiproliferative activity against human RPMI-8226 cells measured after 48 hrs by SRB assay; type: functional, cell-based
# A549 = experiment: Antiproliferative activity against human A549 cells measured after 48 hrs by SRB assay; type: functional, cell-based
# HOP-92 = experiment: Antiproliferative activity against human HOP-92 cells measured after 48 hrs by SRB assay; type: functional, cell-based
# NCI-H322M = experiment: Antiproliferative activity against human NCI-H322M cells measured after 48 hrs by SRB assay; type: functional, cell-based
# NCI-H460 = experiment: Antiproliferative activity against human NCI-H460 cells measured after 48 hrs by SRB assay; type: functional, cell-based
# COLO 205 = experiment: Antiproliferative activity against human COLO 205 cells measured after 48 hrs by SRB assay; type: functional, cell-based
# HCT-116 = experiment: Antiproliferative activity against human HCT-116 cells measured after 48 hrs by SRB assay; type: functional, cell-based
# KM12 = experiment: Antiproliferative activity against human KM12 cells measured after 48 hrs by SRB assay; type: functional, cell-based
# SW-620 = experiment: Antiproliferative activity against human SW-620 cells measured after 48 hrs by SRB assay; type: functional, cell-based
# SF-268 = experiment: Antiproliferative activity against human SF-268 cells measured after 48 hrs by SRB assay; type: functional, cell-based
# SF-295 = experiment: Antiproliferative activity against human SF-295 cells measured after 48 hrs by SRB assay; type: functional, cell-based
# SNB-75 = experiment: Antiproliferative activity against human SNB-75 cells measured after 48 hrs by SRB assay; type: functional, cell-based
# M14 = experiment: Antiproliferative activity against human M14 cells measured after 48 hrs by SRB assay; type: functional, cell-based
# MDA-MB-435 = experiment: Antiproliferative activity against human MDA-MB-435 cells measured after 48 hrs by SRB assay; type: functional, cell-based
# SK-MEL-2 = experiment: Antiproliferative activity against human SK-MEL-2 cells measured after 48 hrs by SRB assay; type: functional, cell-based
# SK-MEL-28 = experiment: Antiproliferative activity against human SK-MEL-28 cells measured after 48 hrs by SRB assay; type: functional, cell-based
# SK-MEL-5 = experiment: Antiproliferative activity against human SK-MEL-5 cells measured after 48 hrs by SRB assay; type: functional, cell-based
# UACC-257 = experiment: Antiproliferative activity against human UACC-257 cells measured after 48 hrs by SRB assay; type: functional, cell-based
# UACC-62 = experiment: Antiproliferative activity against human UACC-62 cells measured after 48 hrs by SRB assay; type: functional, cell-based
# OVCAR-3 = experiment: Antiproliferative activity against human OVCAR-3 cells measured after 48 hrs by SRB assay; type: functional, cell-based
# OVCAR-4 = experiment: Antiproliferative activity against human OVCAR-4 cells measured after 48 hrs by SRB assay; type: functional, cell-based
# OVCAR-5 = experiment: Antiproliferative activity against human OVCAR-5 cells measured after 48 hrs by SRB assay; type: functional, cell-based
# NCI/ADR-RES = experiment: Antiproliferative activity against human NCI-ADR-RES cells measured after 48 hrs by SRB assay; type: functional, cell-based
# SK-OV-3 = experiment: Antiproliferative activity against human SK-OV-3 cells measured after 48 hrs by SRB assay; type: functional, cell-based
# A498 = experiment: Antiproliferative activity against human A498 cells measured after 48 hrs by SRB assay; type: functional, cell-based
# ACHN = experiment: Antiproliferative activity against human ACHN cells measured after 48 hrs by SRB assay; type: functional, cell-based
# CAKI-1 = experiment: Antiproliferative activity against human CAKI-1 cells measured after 48 hrs by SRB assay; type: functional, cell-based
# RXF 393 = experiment: Antiproliferative activity against human RXF 393 cells measured after 48 hrs by SRB assay; type: functional, cell-based
# TK-10 = experiment: Antiproliferative activity against human TK-10 cells measured after 48 hrs by SRB assay; type: functional, cell-based
# PC-3 = experiment: Antiproliferative activity against human PC-3 cells measured after 48 hrs by SRB assay; type: functional, cell-based
# MDA-MB-231 = experiment: Antiproliferative activity against human MDA-MB-231 cells measured after 48 hrs by SRB assay; type: functional, cell-based
# MDA-MB-468 = experiment: Antiproliferative activity against human MDA-MB-468 cells measured after 48 hrs by SRB assay; type: functional, cell-based
# WI-38 = experiment: Antiproliferative activity against human WI-38 cells measured by MTT assay; type: functional, cell-based
# [1] = target: T1, Mitogen-activated protein kinase 10 (Homo sapiens, UniProt P53779); experiment: Inhibition of JNK3 (unknown origin) at 1 uM relative to control
# T1 sequence (P53779 whole entry): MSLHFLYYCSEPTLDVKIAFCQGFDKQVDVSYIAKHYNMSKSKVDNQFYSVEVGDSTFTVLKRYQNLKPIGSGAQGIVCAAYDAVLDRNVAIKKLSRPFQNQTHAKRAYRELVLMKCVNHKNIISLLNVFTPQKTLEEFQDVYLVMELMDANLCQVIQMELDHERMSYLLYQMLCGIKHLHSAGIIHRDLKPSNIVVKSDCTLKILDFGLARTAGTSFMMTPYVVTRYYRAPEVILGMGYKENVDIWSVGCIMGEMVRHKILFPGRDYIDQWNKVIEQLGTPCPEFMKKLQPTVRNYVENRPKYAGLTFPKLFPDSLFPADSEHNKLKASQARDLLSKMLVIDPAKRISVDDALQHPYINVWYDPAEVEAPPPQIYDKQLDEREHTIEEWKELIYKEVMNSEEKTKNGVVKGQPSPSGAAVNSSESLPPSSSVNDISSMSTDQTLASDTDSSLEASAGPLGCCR
# [2] = target: T1, Mitogen-activated protein kinase 10; experiment: Inhibition of JNK3 (unknown origin)
smiles,measurement,setting,value
COc1cccc(-c2nn(-c3ccccc3)cc2-c2ccnc(NCCCNC(=O)Nc3ccc(F)cc3)c2)c1,pIC50,CCRF-CEM; 48 h,5.07
same,TGI,CCRF-CEM; time 48 hrs,31.5 µM
same,pIC50,"HL-60(TB); HL-60, 48 h",5.42
same,TGI,"HL-60(TB); HL-60, time 48 hrs",13.7 µM
same,pIC50,"K562; K562, 48 h",5.53
same,TGI,"K562; K562, time 48 hrs",> 37 µM
same,pIC50,"MOLT-4; MOLT-4, 48 h",5.40
same,TGI,"MOLT-4; MOLT-4, time 48 hrs",19 µM
same,pIC50,"RPMI-8226; RPMI-8226, 48 h",5.22
same,TGI,"RPMI-8226; RPMI-8226, time 48 hrs",24.6 µM
same,pIC50,"A549; A549, 48 h",5.00
same,TGI,"A549; A549, time 48 hrs",> 37 µM
same,pIC50,"HOP-92; HOP-92, 48 h",5.20
same,TGI,"HOP-92; HOP-92, time 48 hrs",31.1 µM
same,pIC50,NCI-H322M; 48 h,5.02
same,TGI,NCI-H322M; time 48 hrs,> 37 µM
same,pIC50,"NCI-H460; NCI-H460, 48 h",5.18
same,TGI,"NCI-H460; NCI-H460, time 48 hrs",17.1 µM
same,pIC50,"COLO 205; COLO 205, 48 h",5.09
same,TGI,"COLO 205; COLO 205, time 48 hrs",29.3 µM
same,pIC50,"HCT-116; HCT-116, 48 h",5.24
same,TGI,"HCT-116; HCT-116, time 48 hrs",17 µM
same,pIC50,"KM12; KM12, 48 h",4.98
same,TGI,"KM12; KM12, time 48 hrs",> 37 µM
same,pIC50,"SW-620; SW-620, 48 h",5.10
same,TGI,"SW-620; SW-620, time 48 hrs",> 37 µM
same,pIC50,"SF-268; SF-268, 48 h",5.15
same,TGI,"SF-268; SF-268, time 48 hrs",30 µM
same,pIC50,"SF-295; SF-295, 48 h",5.15
same,TGI,"SF-295; SF-295, time 48 hrs",21.7 µM
same,pIC50,"SNB-75; SNB-75, 48 h",5.38
same,TGI,"SNB-75; SNB-75, time 48 hrs",22.7 µM
same,pIC50,"M14; M14, 48 h",5.17
same,TGI,"M14; M14, time 48 hrs",19 µM
same,pIC50,"MDA-MB-435; MDA-MB-435, 48 h",5.25
same,TGI,"MDA-MB-435; MDA-MB-435, time 48 hrs",12.8 µM
same,pIC50,"SK-MEL-2; SK-MEL-2, 48 h",5.20
same,TGI,"SK-MEL-2; SK-MEL-2, time 48 hrs",12.6 µM
same,pIC50,"SK-MEL-28; SK-MEL-28, 48 h",5.18
same,TGI,"SK-MEL-28; SK-MEL-28, time 48 hrs",15.5 µM
same,pIC50,"SK-MEL-5; SK-MEL-5, 48 h",5.25
same,TGI,"SK-MEL-5; SK-MEL-5, time 48 hrs",10.8 µM
same,pIC50,"UACC-257; UACC-257, 48 h",5.15
same,TGI,"UACC-257; UACC-257, time 48 hrs",16.9 µM
same,pIC50,"UACC-62; UACC-62, 48 h",5.12
same,TGI,"UACC-62; UACC-62, time 48 hrs",24.2 µM
same,pIC50,"OVCAR-3; OVCAR-3, 48 h",5.21
same,TGI,"OVCAR-3; OVCAR-3, time 48 hrs",> 37 µM
same,pIC50,"OVCAR-4; OVCAR-4, 48 h",4.98
same,TGI,"OVCAR-4; OVCAR-4, time 48 hrs",> 37 µM
same,pIC50,"OVCAR-5; OVCAR-5, 48 h",4.95
same,TGI,"OVCAR-5; OVCAR-5, time 48 hrs",> 37 µM
same,pIC50,NCI/ADR-RES; 48 h,5.14
same,TGI,NCI/ADR-RES; time 48 hrs,25.4 µM
same,pIC50,"SK-OV-3; SK-OV-3, 48 h",4.97
same,TGI,"SK-OV-3; SK-OV-3, time 48 hrs",> 37 µM
same,pIC50,"A498; A498, 48 h",5.13
same,TGI,"A498; A498, time 48 hrs",31.4 µM
same,pIC50,ACHN; 48 h,4.97
same,TGI,ACHN; time 48 hrs,> 37 µM
same,pIC50,"CAKI-1; CAKI-1, 48 h",5.06
same,TGI,"CAKI-1; CAKI-1, time 48 hrs",> 37 µM
same,pIC50,"RXF 393; RXF 393, 48 h",5.22
same,TGI,"RXF 393; RXF 393, time 48 hrs",28.6 µM
same,pIC50,"TK-10; TK-10, 48 h",4.67
same,TGI,"TK-10; TK-10, time 48 hrs",> 37 µM
same,pIC50,"PC-3; PC-3, 48 h",5.21
same,TGI,"PC-3; PC-3, time 48 hrs",> 37 µM
same,pIC50,"MDA-MB-231; MDA-MB-231, 48 h",5.11
same,TGI,"MDA-MB-231; MDA-MB-231, time 48 hrs",23 µM
same,pIC50,"MDA-MB-468; MDA-MB-468, 48 h",5.32
same,TGI,"MDA-MB-468; MDA-MB-468, time 48 hrs",13 µM
same,pIC50,WI-38,< 4.70
same,inhibition,[1],3%
same,pIC50,[2],< 6.00

# — ChEMBL document CHEMBL5113453, “Design, synthesis, and biological evaluation of a new series of pyrazole derivatives: Discovery of potent and selective JNK3 kinase inhibitors” (Bioorg Med Chem, 2022)
